In data set [1] the target is T1, Orexin receptor type 2 (Homo sapiens, UniProt O43614).
T1 sequence (O43614 whole entry): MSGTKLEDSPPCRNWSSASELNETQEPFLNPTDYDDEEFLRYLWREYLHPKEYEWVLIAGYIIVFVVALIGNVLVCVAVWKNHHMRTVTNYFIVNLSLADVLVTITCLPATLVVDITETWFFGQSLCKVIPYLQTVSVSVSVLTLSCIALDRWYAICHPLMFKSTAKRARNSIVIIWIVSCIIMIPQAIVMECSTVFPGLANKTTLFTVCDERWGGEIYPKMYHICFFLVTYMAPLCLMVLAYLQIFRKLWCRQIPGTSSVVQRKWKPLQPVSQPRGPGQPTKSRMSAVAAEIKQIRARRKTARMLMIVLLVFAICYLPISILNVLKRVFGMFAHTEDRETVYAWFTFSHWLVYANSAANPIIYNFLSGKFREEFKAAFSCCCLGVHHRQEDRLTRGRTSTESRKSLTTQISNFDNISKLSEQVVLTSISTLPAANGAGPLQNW
Kind of data set: Binding affinity to OX2 receptor.

Data set [2] is described as follows: Selectivity of Ki for OX1 receptor to Ki for OX2 receptor.
Data set [3] deals with T2, Orexin/Hypocretin receptor type 1 (Homo sapiens, UniProt O43613).
T2 sequence (O43613 whole entry): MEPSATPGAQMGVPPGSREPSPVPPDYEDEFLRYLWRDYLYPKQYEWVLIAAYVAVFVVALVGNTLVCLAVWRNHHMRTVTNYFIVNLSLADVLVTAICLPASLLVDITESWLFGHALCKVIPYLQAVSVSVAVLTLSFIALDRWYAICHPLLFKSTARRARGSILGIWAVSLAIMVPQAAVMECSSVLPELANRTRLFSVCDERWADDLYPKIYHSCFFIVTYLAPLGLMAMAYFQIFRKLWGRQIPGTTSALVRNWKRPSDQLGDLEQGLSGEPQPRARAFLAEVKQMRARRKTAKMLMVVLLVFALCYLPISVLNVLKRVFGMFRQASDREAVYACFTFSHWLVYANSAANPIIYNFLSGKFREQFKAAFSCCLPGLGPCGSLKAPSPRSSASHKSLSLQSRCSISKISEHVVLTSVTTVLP
Kind of data set: Binding affinity to OX1 receptor.

Data set [4] deals with T2, Orexin/Hypocretin receptor type 1. Kind of data set: Antagonist activity at OX1 receptor by FLIPR. In kind it is functional.
Data set [5] deals with T1, Orexin receptor type 2. Description: Antagonist activity at OX2 receptor by FLIPR. The data set is classed as functional.
Data set [6] in a line: Selectivity for OX1 receptor over OX2 receptor.
In data set [7] the target is T1, Orexin receptor type 2. Description: Antagonist activity at human OX2 receptor. The data set is classed as functional.
Data set [8] deals with T2, Orexin/Hypocretin receptor type 1. Description: Antagonist activity at human OX1 receptor. The data set is classed as functional.
In data set [9] the target is T3, Orexin/Hypocretin receptor type 1 (Homo sapiens) (UniProt O43613).
T3 sequence (whole entry): T2 sequence (O43613 whole entry)
Kind of data set: Antagonist activity at human OX1 receptor expressed in CHO cells assessed as inhibition of receptor-mediated calcium response by FLIPR. The data set is classed as functional, cell-based.

For data set [10], the target named is T4, Orexin receptor type 2 (Homo sapiens) (UniProt O43614).
T4 sequence (whole entry): T1 sequence (O43614 whole entry)
Kind of data set: Antagonist activity at human OX2 receptor expressed in CHO cells assessed as inhibition of receptor-mediated calcium response by FLIPR. In kind it is functional, cell-based.

A short description of data set [11]: Aqueous solubility at pH 7. In kind it is physicochemical.
Data set [12] in a line: Inhibition of neuropeptide Y receptor at 10 uM.
Data set [13] is described as follows: Inhibition of galanin receptor at 10 uM.
For data set [14], the target named is T5, Neuromedin-K receptor (Homo sapiens) (UniProt P29371).
T5 sequence (whole entry): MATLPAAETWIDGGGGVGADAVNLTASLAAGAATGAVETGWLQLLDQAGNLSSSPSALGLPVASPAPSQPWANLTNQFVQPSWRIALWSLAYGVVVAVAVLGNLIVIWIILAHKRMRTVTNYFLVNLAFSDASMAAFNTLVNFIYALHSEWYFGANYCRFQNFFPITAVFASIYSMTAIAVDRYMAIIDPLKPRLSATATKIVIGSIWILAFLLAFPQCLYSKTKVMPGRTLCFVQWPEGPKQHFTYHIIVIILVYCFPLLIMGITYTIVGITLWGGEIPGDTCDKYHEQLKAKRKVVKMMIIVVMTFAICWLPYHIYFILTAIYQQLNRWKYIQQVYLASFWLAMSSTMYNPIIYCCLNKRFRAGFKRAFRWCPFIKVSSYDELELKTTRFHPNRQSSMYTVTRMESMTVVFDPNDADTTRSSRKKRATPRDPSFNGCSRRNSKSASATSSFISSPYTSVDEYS
Description: Inhibition of neurokinin-3 receptor at 10 uM.

The target of data set [15] is Kappa-type opioid receptor (Homo sapiens) (UniProt P41145). Description: Inhibition of kappa opioid receptor at 10 uM.
Data set [16] addresses T6, Neuropeptide Y receptor type 1 (Homo sapiens) (UniProt P25929).
T6 sequence (whole entry): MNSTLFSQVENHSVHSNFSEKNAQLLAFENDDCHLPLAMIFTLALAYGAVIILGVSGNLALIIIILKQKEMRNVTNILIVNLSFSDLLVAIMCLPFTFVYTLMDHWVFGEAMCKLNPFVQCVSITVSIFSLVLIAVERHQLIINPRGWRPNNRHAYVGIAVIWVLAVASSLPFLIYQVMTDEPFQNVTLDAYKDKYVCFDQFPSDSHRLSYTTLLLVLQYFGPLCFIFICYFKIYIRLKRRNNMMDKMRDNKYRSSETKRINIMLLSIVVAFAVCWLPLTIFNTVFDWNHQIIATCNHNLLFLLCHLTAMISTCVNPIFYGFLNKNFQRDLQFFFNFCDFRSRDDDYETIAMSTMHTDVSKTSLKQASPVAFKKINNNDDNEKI
Description: Inhibition of NPY1 receptor at 10 uM.

The values that follow come from ChEMBL document CHEMBL1140924, “Biomedical application of orexin/hypocretin receptor ligands in neuroscience” (J Med Chem, 2009).

The structures appear in SMILES notation. Values after ≈ are worked out from the molar mass of the structure shown.

Chain of Kappa-type opioid receptor (Homo sapiens) (P41145 whole entry): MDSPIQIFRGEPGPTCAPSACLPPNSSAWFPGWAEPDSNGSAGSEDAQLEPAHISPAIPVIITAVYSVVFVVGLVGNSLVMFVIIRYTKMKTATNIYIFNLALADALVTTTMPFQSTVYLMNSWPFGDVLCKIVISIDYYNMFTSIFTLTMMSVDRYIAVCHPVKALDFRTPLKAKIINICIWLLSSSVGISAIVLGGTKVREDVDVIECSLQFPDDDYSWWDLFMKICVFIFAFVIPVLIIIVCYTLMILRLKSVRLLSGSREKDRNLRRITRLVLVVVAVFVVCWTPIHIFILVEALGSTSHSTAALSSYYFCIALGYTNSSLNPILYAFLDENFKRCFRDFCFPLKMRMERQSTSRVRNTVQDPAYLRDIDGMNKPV

For the molecule `CC1(C)OC[C@H](NC(=O)Nc2ccc(Br)cc2)[C@H](c2ccccc2)O1`, the Ki (in general, a measure of affinity in units of concentration, obtained from inhibition or displacement) was > 10 µM on Orexin receptor type 2 [1] and 0.251 µM in data set [3]. Besides, in data set [2], the Ratio stood at 40.
With `CCN(Cc1cc(C)n(C)n1)C(=O)CN(c1cc(N(C)C)ccc1Cl)S(=O)(=O)c1ccc(OC)c(OC)c1`, the IC50 (as a rule, the midpoint of a concentration-inhibition curve) was determined as 0.006 µM in data set [4] and 0.004 µM on Orexin receptor type 2 [5].
On to `Cc1cc(NC(=O)Nc2ccc(N(C)C)cc2)c2cc(F)cc(F)c2n1`, for which the Ratio in [6] is > 50. Further, in [3], binding was characterised by a dissociation constant (Kd) of 0.0269 µM.
`CCc1nc(OC)c2n1CCN([C@@H](C(=O)NC)c1ccccc1)[C@H]2CCc1ccc(C)c(F)c1`: the 50% inhibitory concentration (IC50) came to 0.049 µM in data set [4] and 0.002 µM against Orexin receptor type 2 [5].
In the case of `Cc1cc(Br)ccc1NC(=O)N[C@H]1COC(C)(C)O[C@H]1c1ccccc1`, the Ki at Orexin receptor type 2 [1] was > 10 µM; in data set [3] it was 0.0398 µM. For the same molecule, in data set [2], the Ratio came to 200.
As to `COc1cc2c(cc1OC)CN(C(=O)C(Cc1ccccc1)C(=O)c1cc(Cl)cc(Cl)c1)CC2` (racemic), the IC50 against Orexin receptor type 2 [7] amounted to 0.036 µM; in [8] it was 5.3 µM.
As to `CC1(C)OC[C@H](NC(=O)Nc2cc(Cl)ccc2Cl)[C@H](c2ccccc2)O1`, the Ki at Orexin receptor type 2 [1] is > 5.01 µM; in [3] it was 0.0631 µM. Also, the Ratio in [2] is 80.
In the case of `Cn1ccc2cc(NC(=O)Nc3ccnc4ccccc34)ccc21`, the pKb (as a rule, −log10 of the Kb, conventionally taken in molar units) was 7.5 in data set [9] and 5.6 in [10].
In the case of `COc1cc2c(cc1OC)CN(C(=O)C(Cc1ccccc1)c1ccccc1)CC2` (racemic), the solubility (in general, the dissolved amount per volume that the medium holds) in data set [11] was 0.81 mg/mL (≈ 2020 µM).
As for `COc1ccccc1NC(=O)N[C@H]1COC(C)(C)O[C@H]1c1ccccc1`, the Ki was > 10 µM on Orexin receptor type 2 [1] and 2.51 µM in [3]. For the same molecule, the Ratio in [2] was determined as 4.
The corresponding values for `CC1(C)OC[C@H](NC(=O)Nc2ccccc2F)[C@H](c2ccccc2)O1` are > 10 µM, 0.398 µM and 20.
Take `CN(C)c1ccc(NC(=O)Nc2ccnc3c(F)ccc(F)c23)cc1`: the Ratio in data set [6] was > 50. Moreover, the dissociation constant (Kd) (usually the constant that tells how readily two partners part at equilibrium) in data set [3] is 0.00447 µM.
Turning to `CCN(Cc1ccn(C)n1)C(=O)CN(c1cc(N(C)C)ccc1Cl)S(=O)(=O)c1ccc(OC)c(OC)c1`, the IC50 stood at 0.012 µM in data set [4] and 0.007 µM at Orexin receptor type 2 [5].
In the same order, the values of `CCc1nc(OC)c2n1CCN([C@@H](C(=O)NC)c1ccccc1)[C@H]2CCc1ccc(C)c(C)c1` are 0.005 µM and 0.004 µM.
As to `COc1cc2c(cc1OC)CN(C(=O)[C@@H](NCc1ccncc1)C(C)(C)C)CC2`, the inhibition in [12] and in data set [13] was < 30% each time.
For the molecule `CC1(C)OC[C@H](NC(=O)Nc2ccccc2I)[C@H](c2ccccc2)O1`, the inhibition constant Ki was > 5.01 µM on Orexin receptor type 2 [1] and 0.0794 µM in [3]. The Ratio in data set [2] was found to be 70.
For `Cc1nc(C(=O)N2CCC[C@H]2Cc2nnc(-c3ccccc3)o2)c(-c2ccccc2F)s1`, in data set [6], the Ratio is > 100. For the same molecule, the Kd in [3] is 0.00513 µM.
Take `Cc1ccc(Cl)c(NC(=O)N[C@H]2COC(C)(C)O[C@H]2c2ccccc2)c1`: the Ki was > 5.01 µM on Orexin receptor type 2 [1] and 0.0631 µM in data set [3]. For the same molecule, in data set [2], the Ratio was found to be 80.
In the same order, the values of `CC1(C)OC[C@H](NC(=O)Nc2ccccc2C(F)(F)F)[C@H](c2ccccc2)O1` are > 10 µM, 0.1 µM and 100.
Turning to `Cc1ccc(NC(=O)N[C@H]2COC(C)(C)O[C@H]2c2ccccc2)c(C)c1`, the Ki is > 10 µM on Orexin receptor type 2 [1] and 0.126 µM in data set [3]. In data set [2], the Ratio came out at 70.
For `CCN(Cc1cccc(C)n1)C(=O)CN(c1cc(N(C)C)ccc1Cl)S(=O)(=O)c1ccc(OC)c(OC)c1`, the figures for the IC50 (in data set [4]; at Orexin receptor type 2 [5]) were 0.017 µM and 0.005 µM, respectively.
Turning to `CC1(C)OC[C@H](NC(=O)Nc2ccc(Cl)cc2Cl)[C@H](c2ccccc2)O1`, the results for the Ki (at Orexin receptor type 2 [1]; in [3]) were 2.51 µM and 0.02 µM, respectively. Moreover, the Ratio in data set [2] is 100.
As to `CC1(C)OC[C@H](NC(=O)Nc2ccc(Br)cc2Br)[C@H](c2ccccc2)O1`, the inhibitory constant (Ki) on Orexin receptor type 2 [1] was 3.16 µM. Further, the inhibition in data set [14], in data set [15] and in data set [16] was < 40% throughout. Moreover, the Ratio in data set [2] stood at 600.
As to `Cc1cccc(-c2sc(CCCO)nc2C(=O)N2C[C@H]3C[C@H]3[C@H]2CNC(=O)c2c(C)nc3sccn23)c1`, the values for the IC50 (in data set [4]; on Orexin receptor type 2 [5]) were 0.019 µM and 0.017 µM, respectively.
Turning to `CNC1CCCC1CN[C@H](C(=O)N1CCc2cc(OC)c(OC)cc2C1)C(C)(C)C` (stereo partly drawn), the values for the IC50 (against Orexin receptor type 2 [7]; in data set [8]) were 0.028 µM and 3.6 µM, respectively.
In the case of `CC(C)c1ccccc1NC(=O)N[C@H]1COC(C)(C)O[C@H]1c1ccccc1`, the Ki at Orexin receptor type 2 [1] is > 10 µM; in data set [3], 2.51 µM. Further, in data set [2], the Ratio came to 4.
The corresponding values for `CC1(C)OC[C@H](NC(=O)Nc2ccccc2)[C@H](c2ccccc2)O1` are > 10 µM, 0.501 µM and 20.
